Read-outs that look alike come from different tables or passages of the source.
Experiments:
[1] = Isosweet determination (2-AFC) vs sucrose in acidified water, sweetness potency; type: in vivo, human; conditions: pH = 3.2
Protocol: As an example, Reb AM was evaluated.

[2] = FEMA GRAS publication; cited from earlier work
[3] = Solubility characteristics and solution stability in water; type: physicochemical; conditions: for Solubility: summary of solution stability in water
Protocol: Solubility characteristics were measured as follows. Prepare the following solutions in water and stir at 700 rpm for each. Add heat if necessary at 2 minutes and 30 seconds of stirring. Using a stopwatch, determine how long it takes all powder to dissolve completely and record the temperature at which it dissolves. The following table summarizes the solubility characteristics of Rebaudiosides D, M, and AM.

[4] = Sweetness perception threshold (FEMA method, 2-AFC vs 1.5% sugar) in neutral water; type: in vivo, human; conditions: for % Frequency / PC (paired comparison count, panelists choosing the sample as sweeter): 2-AFC, n = 30
Protocol: A series of experiments were performed to evaluate the effect of Reb AM on taste and flavor profile. The sweetness and taste/flavor modification can influence each other in food and beverage applications. To determine the influence of the taste and flavor modification in different applications, the FEMA (Flavor and Extract Manufacturing Association) prescribes a sensory method that determines the sweetness perception threshold determination presented in Experiment 1, which is discussed below.
Experiment 1 provides the estimate of Reb AM concentration in water that barely contributes to sweetness perception. […] The summary of sweetness perception threshold for selected steviol glycosides is below in Table 11.
Therefore we selected 50 ppm of Reb AM as the recognition threshold concentration.

[5] = Flavor modification of Raspberry Watermelon Coconut Water, sensory panel; type: in vivo, human; set-up: Sweet Intensity mean score / Bitter Intensity mean score / Astringency mean score / Coconut Flavor mean score / Watermelon Flavor mean score / Raspberry Flavor mean score / Artificial/Chemical Note mean score / Sweet Aftertaste mean score / Bitter Aftertaste mean score / Overall Liking mean score: scale not given here
From the text: Thirty panel members evaluated two samples of raspberry watermelon flavored coconut water for overall acceptance and attribute intensities (sweetness, Raspberry flavor, watermelon flavor, coconut water flavor, saltiness, bitterness, and sweet aftertaste, bitter aftertaste) in two sessions. In session one, the two samples included: 1) store-bought Raspberry Watermelon Coconut Water control sample and 2) store-bought Raspberry Watermelon Coconut Water test sample containing Reb AM. The objective of the test was to determine if the addition of Reb AM affects the flavor profile of a non-alcoholic beverage.
The test objective is to determine if the flavor profile and overall acceptance of a Control sample of flavored coconut water differs from a Test sample of the same beverage containing Reb AM.

[6] = Taste panel of no-calorie Lemon-lime carbonated soft drink; type: in vivo, human; conditions: 500 ppm in Lemon-lime CSD
From the text: A group of trained and experienced taste panel members evaluated no-calorie Lemon-lime carbonated soft drink (CSD) sweetened with 500 ppm of Reb AM, Reb D, or Reb M samples.

[7] = Flavor modification of chocolate flavored dairy protein shake, sensory panel; type: in vivo, human; set-up: Sweet Intensity mean score / Bitterness mean score / Metallic Note mean score / Cocoa Flavor mean score / Dairy Note mean score / Whey Protein Note mean score / Vanilla Note mean score / Sweet Aftertaste mean score / Bitter Aftertaste mean score / Overall Liking mean score: scale not given here
From the text: Thirty trained panelists evaluated two samples of chocolate flavored dairy protein shake for overall acceptance and attribute intensities (cocoa flavor, dairy note, whey protein, vanilla, metallic, sweetness, bitterness and aftertaste). The two samples included: 1) no sugar added “Control” sample containing 300 ppm PureCircle Reb A and 2) no sugar added “Test” sample containing 300 ppm PureCircle Reb A and 50 ppm Reb AM. The objective of the test was to determine if the addition of Reb AM affects the flavor profile of a milk product.
The test objective is to determine if the flavor profile and overall acceptance of a control sample of dairy beverage application differs from a Test sample of the same beverage containing Reb AM.

[8] = 1.5% Sucrose vs 30 ppm Reb AM in neutral water
[9] = 1.5% Sucrose vs 50 ppm Reb AM in neutral water
[10] = 1.5% Sucrose vs 70 ppm of Reb AM in neutral water
[11] = 1.5% Sucrose vs 100 ppm Reb AM in neutral water
[12] = 50 ppm Reb AM in coconut water, 95% confidence
[13] = Coconut water (raspberry/watermelon flavor) with 50 ppm of Reb AM, 30 panelists
[14] = 50 ppm Reb AM added to shake with 300 ppm Reb A, 95% confidence
[15] = NSA Chocolate Vanilla Protein Dairy Shake w Reb A & 50 ppm Reb AM, 30 panelists

## C=C1C[C@@]23CC[C@H]4[C@@](C)(CCC[C@@]4(C)C(=O)O[C@@H]4O[C@H](CO)[C@@H](O)[C@H](O)[C@H]4O[C@@H]4O[C@H](CO)[C@@H](O)[C@H](O)[C@H]4O)[C@@H]2CC[C@]1(O[C@@H]1O[C@H](CO)[C@@H](O)[C@H](O[C@@H]2O[C@H](CO)[C@@H](O)[C@H](O)[C@H]2O)[C@H]1O[C@@H]1O[C@H](CO)[C@@H](O)[C@H](O)[C@H]1O)C3 [Reb D, rebaudioside D]
[1]; 2.5% SE
  Sweetness Equivalent (ppm) in Water: 62 ppm
  Sweetness Potency in Water: 403 x sugar equivalent
[1]; 5.0% SE
  Sweetness Equivalent (ppm) in Water: 212 ppm
  Sweetness Potency in Water: 236 x sugar equivalent
[1]; 7.5% SE
  Sweetness Equivalent (ppm) in Water: 500 ppm
  Sweetness Potency in Water: 150 x sugar equivalent
[1]; 10.0% SE
  Sweetness Equivalent (ppm) in Water: 926 ppm
  Sweetness Potency in Water: 108 x sugar equivalent
[2]
  Sweetness Perception Threshold Concentration: 32.5 ppm
[3]; Test Conc. 0.05%
  Comment on solubility: Easily Soluble
  Dissolution in water (Heated), temperature: temp: 39 deg. C.
  Solution after 24 hrs: Clear
  Solution after 48 hrs: Clear
[3]; Test Conc. 0.1%
  Comment on solubility: Easily Soluble
  Dissolution in water (Heated), temperature: temp: 72 deg. C.
  Solution after 24 hrs: Clear
  Solution after 48 hrs: Clear
[3]; Test Conc. 0.3%
  Comment on solubility: Requires
  Dissolution in water (Heated), temperature: 78.5 deg. C.
[3]
  Solubility: 0.1%

## C=C1C[C@@]23CC[C@H]4[C@@](C)(CCC[C@@]4(C)C(=O)O[C@@H]4O[C@H](CO)[C@@H](O)[C@H](O[C@@H]5O[C@H](CO)[C@@H](O)[C@H](O)[C@H]5O)[C@H]4O[C@@H]4O[C@H](CO)[C@@H](O)[C@H](O)[C@H]4O)[C@@H]2CC[C@]1(O[C@@H]1O[C@H](CO)[C@@H](O)[C@H](O[C@@H]2O[C@H](CO)[C@@H](O)[C@H](O)[C@H]2O)[C@H]1O[C@@H]1O[C@H](CO)[C@@H](O)[C@H](O)[C@H]1O)C3 [Reb M, rebaudioside M]
[1]; 2.5% SE
  Sweetness Equivalent (ppm) in Water: 84 ppm
  Sweetness Potency in Water: 298 x sugar equivalent
[1]; 5.0% SE
  Sweetness Equivalent (ppm) in Water: 209 ppm
  Sweetness Potency in Water: 239 x sugar equivalent
[1]; 7.5% SE
  Sweetness Equivalent (ppm) in Water: 418 ppm
  Sweetness Potency in Water: 179 x sugar equivalent
[1]; 10.0% SE
  Sweetness Equivalent (ppm) in Water: 832 ppm
  Sweetness Potency in Water: 90 x sugar equivalent
[2]
  Sweetness Perception Threshold Concentration: 24 ppm
[3]; Test Conc. 0.1%
  Comment on solubility: Easily Soluble
  Dissolution in water (Heated), time: No heat needed
  Dissolution water (Ambient), time of agitation: 12 minutes of
  Solution after 24 hrs: Clear
  Solution after 48 hrs: Clear
[3]; Test Conc. 0.3%
  Comment on solubility: Moderately
  Dissolution in water (Heated), temperature: Heated to 99 deg C. deg. C.
  Solution after 24 hrs: Clear
  Solution after 48 hrs: Slight
[3]; Test Conc. 0.5%
  Comment on solubility: Requires
  Dissolution in water (Heated), temperature: 87 deg. C. with
  Dissolution in water (Heated), time: agitation. 16 min
  Solution after 24 hrs: Moderate
[3]
  Solubility: 0.3%

## OC[C@H]1O[C@@](CO)(O[C@H]2O[C@H](CO)[C@@H](O)[C@H](O)[C@H]2O)[C@@H](O)[C@@H]1O [Sucrose]
[4]; [8]
  % Frequency: 96.7%
  PC (paired comparison count, panelists choosing the sample as sweeter): 29
[4]; [9]
  % Frequency: 76.7%
  PC (paired comparison count, panelists choosing the sample as sweeter): 23
[4]; [10]
  % Frequency: 30%
  PC (paired comparison count, panelists choosing the sample as sweeter): 9
[4]; [11]
  % Frequency: 10%
  PC (paired comparison count, panelists choosing the sample as sweeter): 3

## C=C1C[C@@]23CC[C@H]4[C@@](C)(CCC[C@@]4(C)C(=O)O[C@@H]4O[C@H](CO)[C@@H](O)[C@H](O[C@@H]5O[C@H](CO)[C@@H](O)[C@H](O)[C@H]5O)[C@H]4O[C@@H]4O[C@H](CO)[C@@H](O)[C@H](O)[C@H]4O)[C@@H]2CC[C@]1(O[C@@H]1O[C@H](CO)[C@@H](O)[C@H](O)[C@H]1O[C@@H]1O[C@H](CO)[C@@H](O)[C@H](O)[C@H]1O)C3 [Reb AM, Rebaudioside AM]
[1]; 2.5% SE
  Sweetness Equivalent (ppm) in Water: 150 ppm
  Sweetness Potency in Water: 167 x sugar equivalent
[1]; 5.0% SE
  Sweetness Equivalent (ppm) in Water: 365 ppm
  Sweetness Potency in Water: 137 x sugar equivalent
[1]; 7.5% SE
  Sweetness Equivalent (ppm) in Water: 869 ppm
  Sweetness Potency in Water: 86 x sugar equivalent
[1]; 10.0% SE
  Sweetness Equivalent (ppm) in Water: 1750 ppm
  Sweetness Potency in Water: 57 x sugar equivalent
[4]; [8]
  % Frequency: 3.3%
  PC (paired comparison count, panelists choosing the sample as sweeter): 1
[4]; [9]
  % Frequency: 23.3%
  PC (paired comparison count, panelists choosing the sample as sweeter): 7
[4]; [10]
  % Frequency: 70%
  PC (paired comparison count, panelists choosing the sample as sweeter): 21
[4]; [11]
  % Frequency: 90%
  PC (paired comparison count, panelists choosing the sample as sweeter): 27
[4]; 50 ppm in water
  Sweetness perception compared with 1.5% sugar solution: significantly lower
[4]; neutral water, vs 1.5% sugar solution
  Sweetness Perception Threshold Concentration: 50 ppm
[5]; 50 ppm Reb AM in coconut water, 90% confidence
  sweet aftertaste intensity vs control: significantly lower
[5]; [12]
  coconut water flavor vs control: significantly higher
  mango peach flavor vs control: significantly higher
  overall liking vs control: significantly higher
  watermelon flavor vs control: significantly higher
[5]; [13]
  Artificial/Chemical Note mean score: 2.55
  Astringency mean score: 1.10
  Bitter Aftertaste mean score: 0.29
  Bitter Intensity mean score: 0.24
  Coconut Flavor mean score: 5.11
  Overall Liking mean score: 5.04
  Raspberry Flavor mean score: 0.95
  Sweet Aftertaste mean score: 1.33
  Sweet Intensity mean score: 4.44
  Watermelon Flavor mean score: 4.41
[3]; Test Conc. 1%
  Comment on solubility: Easily Soluble
  Dissolution in water (Heated): No heat needed
  Dissolution water (Ambient), stirring time: Stirred for 3 min
  Solution after 24 hrs: Clear
  Solution after 48 hrs: Clear
[3]; Test Conc. 5%
  Comment on solubility: Easily Soluble
  Dissolution in water (Heated), temperature: 45 C.
  Solution after 24 hrs: Clear
  Solution after 48 hrs: Clear
[3]; Test Conc. 10%
  Comment on solubility: Moderately
  Dissolution in water (Heated), temperature: 54 C.
  Solution after 24 hrs: Clear
  Solution after 48 hrs: Slight
[3]
  Solubility: 10%
[3]; water
  Solubility compared with other steviol glycosides: significantly higher solubility than other minor and major steviol glycosides
[6]
  bitterness compared to CSD with Reb D or Reb M: significantly less
  sweetness compared to CSD with Reb D or Reb M: less sweet
  sweetness lingering compared to CSD with Reb D or Reb M: significantly less
[7]; 50 ppm Reb AM added to shake with 300 ppm Reb A
  impact on sweetness intensity: no significant impact
[7]; [14]
  bitter aftertaste vs control: lower
  bitterness vs control: significantly lower
  cocoa flavor vs control: significantly higher
  dairy notes vs control: significantly higher
  metallic note vs control: significantly lower
  overall liking vs control: significantly higher
  vanilla flavor vs control: significantly higher
  whey protein vs control: significantly lower
[7]; [15]
  Bitter Aftertaste mean score: 0.77
  Bitterness mean score: 1.46
  Cocoa Flavor mean score: 4.55
  Dairy Note mean score: 4.59
  Metallic Note mean score: 1.48
  Overall Liking mean score: 5.59
  Sweet Aftertaste mean score: 1.65
  Sweet Intensity mean score: 5.98
  Vanilla Note mean score: 2.52
  Whey Protein Note mean score: 4.32
